Assay results: ChEMBL document CHEMBL1201862, “PubChem BioAssay data set” (2004)
The source made the active and inactive calls.

Legend:
[1] = tested on: Streptococcus sp. 'group A'; experiment: Streptococcus pyogenes SK(-)GAS viability under kanamycin – luminescence, BacTiterGlo, confirmation, counter-screen for streptokinase expression inhibitor project, dose response (AID 1900); format: functional, organism-based
[2] = target: T1, Streptokinase A (Streptococcus pyogenes serotype M1, UniProt P10520); experiment: viability-normalized secreted streptokinase activity reduction – plasminogen activation absorbance, OD405, dose response (AID 1914); format: functional, Streptococcus pyogenes M1 GAS;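 also: secreted streptokinase activity via plasminogen activation per viability signal from cell pellet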
T1 sequence (P10520 whole entry): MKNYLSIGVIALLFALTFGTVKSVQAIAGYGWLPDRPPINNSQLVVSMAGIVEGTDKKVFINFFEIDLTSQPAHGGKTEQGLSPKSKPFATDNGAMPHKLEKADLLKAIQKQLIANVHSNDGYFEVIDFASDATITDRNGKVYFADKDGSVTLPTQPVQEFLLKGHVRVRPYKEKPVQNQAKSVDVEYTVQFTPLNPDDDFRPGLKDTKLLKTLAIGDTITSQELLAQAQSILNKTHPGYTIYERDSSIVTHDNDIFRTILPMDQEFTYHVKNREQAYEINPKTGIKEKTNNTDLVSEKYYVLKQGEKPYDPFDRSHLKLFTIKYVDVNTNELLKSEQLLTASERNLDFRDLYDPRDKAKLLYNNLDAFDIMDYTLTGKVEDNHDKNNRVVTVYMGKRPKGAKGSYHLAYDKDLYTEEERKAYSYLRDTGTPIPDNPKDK

[3] = tested on: Streptococcus; experiment: GAS UMAA2166 growth inhibition – luminescence, BacTiterGlo, counter-screen for streptokinase expression inhibitor project, dose response (AID 1915); format: functional, organism-based;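 also: potency for reduction of bacterial viability or growth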
[4] = viability of uninfected HEp-2 cells – cell-based, HTS, cytotoxicity control for RSV inhibitor project, dose response (AID 2410); format: functional; conditions: human respiratory syncytial virus
[5] = tested on: H9c2; experiment: cells; format: functional, cell-based; conditions: Rattus norvegicus, H9c2, Myocardium;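 also: confirmatory concentration-response retest of ultra-high-throughput screening hits for modulation of myocardial damage; cell death induced by hydrogen peroxide oxidative stress; compound pretreatment for 60 min then peroxide exposure for 2 h; potency is for protecting the cells against peroxide damage rather than for killing them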
[6] = Luminescence Cell-Based Dose Retest to Confirm Inhibitors of Cancer Stem Cells. [Related pubchem assays (depositor defined):AID2717, AID2721]; format: functional; conditions: Homo sapiens
[7] = viability of PTEN-deleted HCT116 cells – cell-based, HCT116 PTEN knockout, dose response (AID 1047); format: functional;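 also: HCT116 colon tumor cells with PTEN knocked out; cells exposed to compound for 60 hours before readout; potency for loss of cell viability measured by luminescence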
[8] = viability of HCT116 lacking mutant beta-catenin – cell-based, human colon tumor, dose response (AID 1045); format: functional;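 also: HCT116 colon tumor cells with beta catenin knocked out; cells exposed to compound for 60 hours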
[9] = target: T2, Rac GTPase-activating protein 1 (Homo sapiens, UniProt Q9H0H5); experiment: blockers of MgcRacGAP-driven Rac1 GTP hydrolysis – biochemical, ADP Hunter fluorescence, primary and confirmatory, confirmation (AID 624330); format: functional
T2 sequence (Q9H0H5 whole entry): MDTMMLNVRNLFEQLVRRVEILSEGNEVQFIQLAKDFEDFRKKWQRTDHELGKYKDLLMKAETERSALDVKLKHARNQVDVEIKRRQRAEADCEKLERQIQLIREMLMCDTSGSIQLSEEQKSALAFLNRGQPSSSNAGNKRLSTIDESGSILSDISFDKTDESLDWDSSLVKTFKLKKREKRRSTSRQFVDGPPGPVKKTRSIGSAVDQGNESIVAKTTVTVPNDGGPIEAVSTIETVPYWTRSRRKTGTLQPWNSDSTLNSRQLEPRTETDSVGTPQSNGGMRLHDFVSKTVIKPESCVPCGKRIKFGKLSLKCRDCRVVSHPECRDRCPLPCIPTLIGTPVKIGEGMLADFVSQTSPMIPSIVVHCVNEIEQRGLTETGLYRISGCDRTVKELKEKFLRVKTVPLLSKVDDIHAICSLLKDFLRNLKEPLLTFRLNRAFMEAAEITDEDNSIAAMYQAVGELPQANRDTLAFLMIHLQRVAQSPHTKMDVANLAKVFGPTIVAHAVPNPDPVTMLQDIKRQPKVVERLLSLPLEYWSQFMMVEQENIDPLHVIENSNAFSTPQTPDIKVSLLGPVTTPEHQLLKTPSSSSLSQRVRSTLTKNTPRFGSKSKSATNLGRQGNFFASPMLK

[10] = target: T3, Corticotropin-releasing factor receptor 2/Corticotropin-releasing factor-binding protein (Homo sapiens, UniProt P24387+Q13324); experiment: activators of CRF receptor 2 with binding protein – uHTS hits, confirmation (AID 602473); format: functional; conditions: read-out: EC50_Mean
T3 sequence (Q13324 whole entry): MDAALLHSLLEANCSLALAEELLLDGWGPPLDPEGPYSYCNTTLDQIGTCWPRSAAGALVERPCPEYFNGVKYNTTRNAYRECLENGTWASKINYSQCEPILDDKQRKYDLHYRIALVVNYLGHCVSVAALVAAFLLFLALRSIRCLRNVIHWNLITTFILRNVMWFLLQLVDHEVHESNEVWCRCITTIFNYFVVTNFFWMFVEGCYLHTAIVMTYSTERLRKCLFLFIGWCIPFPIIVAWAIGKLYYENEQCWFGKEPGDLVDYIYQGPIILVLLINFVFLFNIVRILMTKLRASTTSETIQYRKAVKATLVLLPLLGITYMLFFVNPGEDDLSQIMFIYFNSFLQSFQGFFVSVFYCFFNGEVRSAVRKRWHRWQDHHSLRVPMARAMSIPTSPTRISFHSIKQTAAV
T3 sequence (P24387 whole entry): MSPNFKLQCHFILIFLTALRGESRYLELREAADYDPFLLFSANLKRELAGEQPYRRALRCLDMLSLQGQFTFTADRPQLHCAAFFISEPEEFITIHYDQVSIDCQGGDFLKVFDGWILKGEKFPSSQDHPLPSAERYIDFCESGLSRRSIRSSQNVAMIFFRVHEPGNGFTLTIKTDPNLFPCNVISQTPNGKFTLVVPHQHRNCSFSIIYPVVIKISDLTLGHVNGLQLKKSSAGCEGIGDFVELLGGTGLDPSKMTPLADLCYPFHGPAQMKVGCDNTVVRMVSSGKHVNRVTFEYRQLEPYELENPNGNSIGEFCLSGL

[11] = reduction of Shn3 3'UTR-driven luciferase in osteoblasts – cell-based, Clone20 osteoblasts, firefly luciferase, cherry-picked, dose response (AID 624132); format: functional;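 also: firefly luciferase luminescence from reporter carrying the Shn3 3'UTR in osteoblasts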
[12] = loss of viability in HepG2 cells – cell-based, CellTiter-Glo, cherry-picked, cytotoxicity control for Shn3 inhibitor project, dose response (AID 624134); format: functional
[13] = non-specific 3'UTR reporter inhibition in Clone20-Shn3RL – cell-based, Renilla luciferase, cherry-picked, counter-screen for Shn3 inhibitor project, dose response (AID 624133); format: functional
[14] = target: Cytochrome P450 3A4 (Homo sapiens, UniProt P08684);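 also: CYP3A4 tested as one member of a cytochrome P450 panel screen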
Sequence of Cytochrome P450 3A4 (P08684 whole entry): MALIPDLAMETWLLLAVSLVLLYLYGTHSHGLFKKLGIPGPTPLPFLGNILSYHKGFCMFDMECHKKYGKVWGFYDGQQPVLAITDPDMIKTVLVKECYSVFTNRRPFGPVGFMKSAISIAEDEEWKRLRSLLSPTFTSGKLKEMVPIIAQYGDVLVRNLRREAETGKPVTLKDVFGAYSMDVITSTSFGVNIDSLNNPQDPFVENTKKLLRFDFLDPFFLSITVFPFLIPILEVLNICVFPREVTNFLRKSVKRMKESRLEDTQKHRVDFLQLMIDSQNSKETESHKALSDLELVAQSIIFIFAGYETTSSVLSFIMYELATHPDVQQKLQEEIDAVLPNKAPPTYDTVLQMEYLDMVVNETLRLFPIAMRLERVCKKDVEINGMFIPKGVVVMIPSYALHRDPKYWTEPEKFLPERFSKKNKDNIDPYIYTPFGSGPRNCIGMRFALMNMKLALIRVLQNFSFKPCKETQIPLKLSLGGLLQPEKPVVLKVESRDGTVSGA

SMILES	EC50 [1]	EC50 [2]	EC50 [3]	further results
COc1cccc(CC(=O)OCC(=O)Nc2nnc(-c3ccccc3)o2)c1	7.82 µM (active)	> 150 µM (not active)	> 150 µM (not active)	
COc1cc(OC)cc(C(=O)Nc2cccc(-c3ccc(N4CCOCC4)nn3)c2)c1	> 150 µM (not active)	> 150 µM (not active)	> 150 µM (not active)	
N#C/C(=C\c1ccc(OCc2ccccc2)cc1)C(=O)Nc1nc2c(s1)CCN(Cc1ccccc1)C2				CC50 [4]: 28.8 µM (active)
CC1Nc2ncnc(N3CCN(c4ccccc4)CC3)c2N(Cc2ccc(Cl)cc2)C1=O (stereo not given)				CC50 [4]: 26.4 µM (active); IC50 [5]: > 79 µM (inactive)
CCCCCCC(C)(C)c1ccc([C@@H]2C[C@H](O)CC[C@H]2CCCO)c(O)c1 [CP-55940]				AC50 [6]: 3.58 µM (active)
COc1cc(OC)c(NC(=O)C2CCN(S(=O)(=O)c3ccc4c(c3)CC(C)N4C(C)=O)CC2)cc1Cl (stereo not given)				CC50 [4]: > 50 µM (active)
CCc1sc(C(=O)Nc2nccs2)cc1C	> 150 µM (not active)	> 150 µM (not active)	> 150 µM (not active)	
C=C(C)COc1ccc(-c2nc(N)ncc2Oc2ccc(OC)cc2)c(O)c1	47.6 µM (active)	> 150 µM (not active)	> 150 µM (not active)	
Cc1ccc(C)c(C(=O)COc2ccccc2[N+](=O)[O-])c1				EC50 [7]: 10.2 µM (active); EC50 [8]: 9.49 µM (active)
c1ccc(CNc2ccc(N3CCOCC3)cc2)cc1				IC50 [9]: 8.18 µM (active)
COc1ccc(-n2c(O)cc(=O)nc2SCC(=O)Nc2ccccc2)cc1	67.3 µM (active)	> 150 µM (not active)	> 150 µM (not active)	
C[C@]12CCC(O)CC1CCC1C2CC[C@]2(C)C(c3cc(C(F)(F)F)n[nH]3)CCC12 (stereo not given in full)		4.19 µM (active)		EC50 [10]: 11.1 µM (active)
Cc1cc2cc(CN(CC3CCCO3)C(S)=Nc3ccccc3)c(O)nc2cc1C (stereo not given)				EC50 [7]: 4.38 µM (active); EC50 [8]: 5.3 µM (active); AC50 [11]: 2.91 µM (active); AC50 [12]: 48.9 µM (active); AC50 [13]: 9.59 µM (active)
COc1cc(NC(=O)c2cc3nc(-c4ccccc4)cc(-c4ccccc4)n3n2)cc(OC)c1OC	11.7 µM (active)	> 150 µM (not active)	> 150 µM (not active)	IC50 [5]: 8.62 µM (active); AC50 [14]: 10 µM (inconclusive)
